Source: patent US10280149B2, “Therapeutic compounds and uses thereof” (GENENTECH, INC., priority 2015, dated 2019)
pIC50: −log10 of the molar value. Counter-ions that a name gives are not always drawn.

Target: Full length KDM2B (Homo sapiens (Human), UniProt Q8NHM5)
Assay: KDM2B TR-FRET assay for determining inhibitor IC50
Format: biochemical
Settings: TR-FRET (HTRF), biotin-H3K36me2 peptide substrate, 2-OG 0.3 μM or 6 μM
Excerpt: KDM2B TR-FRET Assay for Determining Inhibitor IC50
The KDM2B TR-FRET Assay described above represents an additional embodiment of the invention.

Sequence of Full length KDM2B (Q8NHM5 whole entry): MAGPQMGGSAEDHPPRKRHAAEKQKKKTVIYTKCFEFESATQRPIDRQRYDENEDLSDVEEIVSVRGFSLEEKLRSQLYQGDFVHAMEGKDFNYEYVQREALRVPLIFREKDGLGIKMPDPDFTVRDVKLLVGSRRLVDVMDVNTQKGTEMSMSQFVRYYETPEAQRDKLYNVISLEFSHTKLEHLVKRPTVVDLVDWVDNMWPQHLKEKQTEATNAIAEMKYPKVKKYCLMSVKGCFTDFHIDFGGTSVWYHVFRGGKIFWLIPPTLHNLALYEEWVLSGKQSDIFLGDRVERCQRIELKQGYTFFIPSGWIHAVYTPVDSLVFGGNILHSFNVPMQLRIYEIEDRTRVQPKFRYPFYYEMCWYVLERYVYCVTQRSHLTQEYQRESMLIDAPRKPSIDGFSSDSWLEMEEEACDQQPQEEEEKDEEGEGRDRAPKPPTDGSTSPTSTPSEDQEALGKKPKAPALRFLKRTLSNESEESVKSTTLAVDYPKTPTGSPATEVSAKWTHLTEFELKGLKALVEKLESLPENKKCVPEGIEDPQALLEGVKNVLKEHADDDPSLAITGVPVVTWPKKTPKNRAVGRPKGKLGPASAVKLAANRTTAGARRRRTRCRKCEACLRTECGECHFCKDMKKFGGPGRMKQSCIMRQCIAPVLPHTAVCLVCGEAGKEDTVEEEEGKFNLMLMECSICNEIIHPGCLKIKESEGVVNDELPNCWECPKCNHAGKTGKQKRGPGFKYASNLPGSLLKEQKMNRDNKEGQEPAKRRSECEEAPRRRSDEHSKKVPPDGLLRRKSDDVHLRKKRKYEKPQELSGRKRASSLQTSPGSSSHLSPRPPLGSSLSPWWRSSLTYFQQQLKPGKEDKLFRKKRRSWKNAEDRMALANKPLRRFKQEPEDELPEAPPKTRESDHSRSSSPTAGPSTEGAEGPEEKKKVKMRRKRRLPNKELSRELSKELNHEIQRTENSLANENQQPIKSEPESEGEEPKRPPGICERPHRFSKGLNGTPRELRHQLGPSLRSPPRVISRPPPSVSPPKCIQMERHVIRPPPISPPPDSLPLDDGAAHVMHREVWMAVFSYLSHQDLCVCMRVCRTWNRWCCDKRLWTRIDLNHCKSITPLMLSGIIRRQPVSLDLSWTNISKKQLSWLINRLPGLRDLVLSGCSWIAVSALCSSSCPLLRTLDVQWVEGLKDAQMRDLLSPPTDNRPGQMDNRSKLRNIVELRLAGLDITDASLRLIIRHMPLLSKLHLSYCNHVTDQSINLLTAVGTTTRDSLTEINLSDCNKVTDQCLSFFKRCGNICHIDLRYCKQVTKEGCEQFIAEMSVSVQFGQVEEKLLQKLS

| SMILES | pIC50 |
| --- | --- |
| CS(=O)(=O)c1ccc2cc(C(=O)C3CCCN(C4CCCC4)C3)ccc2c1 (stereo not shown) [Example 171, (1-cyclopentylpiperidin-3-yl)(6-(methylsulfonyl)naphthalen-2-yl)methanone] | 6.99 |
| CCN1CCN(C2CCC2)CC1C(=O)c1ccc2cc(OC)ccc2c1 (stereo not shown) [Example 190] | 6.01 |
| Cn1c(=O)n(C)c2cc(C(=O)C3CCCN(CC4CC4)C3)ccc21 (stereo not shown) [Example 130, 5-(1-(cyclopropylmethyl)piperidine-3-carbonyl)-1,3-dimethyl-1H-benzo[d]imidazol-2-one] | 6.35 |
| CCC[C@H]1CCN(C2CCC2)C[C@H]1C(=O)c1ccc2c(CC#N)c(OC)ccc2c1 (stereo in doubt) [Example 184b, 2-(6-(1-cyclobutyl-4-propylpiperidine-3-carbonyl)-2-methoxynaphthalen-1-yl)acetonitrile] | 8.85 |
| COc1ccc2cc(C(=O)[C@@H]3CN(C4CCC4)CC[C@@H]3C(C)C)ccc2c1CC#N (stereo in doubt) [Example 186a, 2-(6-(1-cyclobutyl-4-isopropylpiperidine-3-carbonyl)-2-methoxynaphthalen-1-yl)acetonitrile] | 7.15 |
| Cc1ccc2cc(C(=O)C3CCCN(CC4CC4)C3)ccc2n1 (stereo not shown) [Example 173] | 6.59 |
| Cc1cccc2ccc(C(=O)C3CCCN(CC4CC4)C3)cc12 (stereo not shown) [Example 59, [1-(cyclopropylmethyl)-3-piperidyl]-(8-methyl-2-naphthyl)methanone] | 6.77 |
| COc1ccc2cc(C(=O)[C@@H]3CCCN(CC4CC4)C3)ccc2c1 [Example 7, [(3R)-1-(cyclopropylmethyl)-3-piperidyl]-(6-methoxy-2-naphthyl)methanone] | 6.91 |
| CCCN1CCCC(C(=O)c2ccc(Cl)c(Cl)c2)C1 (stereo not shown) [Example 101, (3,4-dichlorophenyl)-(1-propyl-3-piperidyl)methanone] | 6.55 |
| COc1ccc2cc(C(=O)C3CCCN(C4CC(C#N)C4)C3)ccc2c1 (stereo not shown) [Example 65, 3-[3-(6-methoxynaphthalene-2-carbonyl)-1-piperidyl]cyclobutanecarbonitrite] | 6.51 |
| O=C(c1ccc2c(O)cccc2c1)C1CCCN(CC2CC2)C1 (stereo not shown) [Example 150, (1-(cyclopropylmethyl)piperidin-3-yl)(5-hydroxynaphthalen-2-yl)methanone] | 6.88 |
| COc1ccc2cc(C(=O)C3CCCN(CC4CC4)C3)ccc2c1CO (stereo not shown) [Example 188, (1-(cyclopropylmethyl)piperidin-3-yl)(5-(hydroxymethyl)-6-methoxynaphthalen-2-yl)methanone hydrochloride] | 6.88 |
| N#Cc1cc(C(=O)C2CCCN(C3CCC3)C2)cc2ccccc12 (stereo not shown) [Example 44, 3-(1-cyclobutylpiperidine-3-carbonyl)naphthalene-1-carbonitrile] | 7.00 |
| O=C(c1cccc(Cl)c1)[C@H]1CCCN(CC2CC2)C1 (stereo in doubt) [Example 118b, (3-chlorophenyl)(1-(cyclopropylmethyl)piperidin-3-yl)methanone] | 6.18 |
| CCCN1CCCC(C(=O)c2cccc(Cl)c2)C1 (stereo not shown) [Example 92, (3-chlorophenyl)-(1-propyl-3-piperidyl)methanone] | 6.14 |
| CCCN1CC[C@@H](C)[C@@H](C(=O)c2ccc3c(CC#N)c(OC)ccc3c2)C1 (stereo in doubt) [Example 181a, 2-(2-methoxy-6-(4-methyl-1-propylpiperidine-3-carbonyl)naphthalen-1-yl)acetonitrile] | 5.89 |
| O=C(c1cc(CO)c2ccccc2c1)C1CCCN(C2CCCC2)C1 (stereo not shown) [Example 57, (1-cyclopentyl-3-piperidyl)-[4-(hydroxymethyl)-2-naphthyl]methanone] | 6.90 |
| O=C(c1ccc(Oc2ccccc2)cc1)[C@H]1CCCN(CC2CC2)C1 [Example 31, [(3S)-1-(cyclopropylmethyl)-3-piperidyl]-(4-phenoxyphenyl)methanone] | 6.87 |
| C[C@H]1CCN(CC2CC2)C[C@@H]1C(=O)c1ccc2cc(C#N)ccc2c1 (stereo in doubt) [Example 160a, 6-(1-(cyclopropylmethyl)-4-methylpiperidine-3-carbonyl)-2-naphthonitrile] | 5.77 |
| COc1ccc2cc(C(=O)C3CN(C4CCC4)CCN3Cc3ccc(C#N)cc3)ccc2c1 (stereo not shown) [Example 199, 4-[[4-cyclobutyl-2-(6-methoxynaphthalene-2-carbonyl)piperazin-1-yl]methyl]benzonitrile] | 7.51 |
| O=C(c1ccc2c(c1)CCCC2)C1CCCN(C2CCC2)C1 (stereo not shown) [Example 133, (1-cyclobutyl-3-piperidyl)-tetralin-6-yl-methanone] | 6.99 |
| Cc1cccc2ccc(C(=O)C3CCCN(C4CCC4)C3)cc12 (stereo not shown) [Example 62, (1-cyclobutyl-3-piperidyl)-(8-methyl-2-naphthyl)methanone] | 6.99 |
| Cc1noc2cc(C(=O)C3CCCN(CC4CC4)C3)ccc12 (stereo not shown) [Example 129, (1-(cyclopropylmethyl)piperidin-3-yl)(3-methylbenzo[d]isoxazol-6-yl)methanone] | 6.31 |

| SMILES | pIC50 |
| --- | --- |
| CC1CC1CN1CCCC(C(=O)c2ccc3cc(C#N)ccc3c2)C1 (stereo not shown) [Example 164, 6-(1-((2-methylcyclopropyl)methyl)piperidine-3-carbonyl)-2-naphthonitrile] | 6.36 |
| O=C(c1cnn(-c2ccccc2)c1)C1CCCN(CC2CC2)C1 (stereo not shown) [Example 124, (1-(cyclopropylmethyl)piperidin-3-yl)(1-phenyl-1H-pyrazol-4-yl)methanone] | 6.18 |
| COc1ccc2cc(C(=O)C3CN(C4CCC4)CCN3C)ccc2c1 (stereo not shown) [Example 194, (4-cyclobutyl-1-methyl-piperazin-2-yl)-(6-methoxy-2-naphthyl)methanone] | 5.77 |
| COc1ccc2cc(C(=O)C3CCCN(C4CCC4)C3)ccc2c1CO (stereo not shown) [Example 189, (1-cyclobutylpiperidin-3-yl)(5-(hydroxymethyl)-6-methoxynaphthalen-2-yl)methanone hydrochloride] | 7.26 |
| COc1ccc2cc(C(=O)[C@@H]3CN(C4CCC4)CC[C@@H]3CC(C)C)ccc2c1 (single isomer, unassigned) [Example 144a, (1-cyclobutyl-4-isobutylpiperidin-3-yl)(6-methoxynaphthalen-2-yl)methanone] | 8.25 |
| O=C(c1ccc2cc(CO)ccc2c1)C1CCCN(C2CCC2)C1 (stereo not shown) [Example 153, (1-cyclobutylpiperidin-3-yl)(6-(hydroxymethyl)naphthalen-2-yl)methanone] | 6.39 |
| Cc1c(C#N)ccc2cc(C(=O)C3CCCN(CC4CC4)C3)ccc12 (stereo not shown) [Example 71, 6-(1-(cyclopropylmethyl)piperidine-3-carbonyl)-1-methyl-2-naphthonitrile] | 6.88 |
| COc1ccc2cc(C(=O)C3CCCN(C4CC(F)(F)C4)C3)ccc2c1 (stereo not shown) [Example 66, [1-(3,3-difluorocyclobutyl)-3-piperidyl]-(6-methoxy-2-naphthyl)methanone] | 7.17 |
| COCCN1CCCC(C(=O)c2ccc3cc(OC)ccc3c2)C1 (stereo not shown) [Example 78, [1-(2-methoxyethyl)-3-piperidyl]-(6-methoxy-2-naphthyl)methanone] | 5.62 |
| CC(=O)NCc1cc(C(=O)C2CCCN(CC3CC3)C2)cc2ccccc12 (stereo not shown) [Example 39, N-[[3-[1-(cyclopropylmethyl)piperidine-3-carbonyl]-1-naphthyl]methyl]acetamide] | 6.34 |
| CCCN1CCCC(C(=O)c2ccc3c(C)c(C#N)ccc3c2)C1 (stereo not shown) [Example 70, 1-methyl-6-(1-propylpiperidine-3-carbonyl)-2-naphthonitrile] | 7.04 |
| O=C(c1ccc2cc(CO)ccc2c1)C1CCCN(CC2CC2)C1 (stereo not shown) [Example 152, (1-(cyclopropylmethyl)piperidin-3-yl)(6-(hydroxymethyl)naphthalen-2-yl)methanone] | 6.63 |
| O=C(c1ccc2ccccc2n1)[C@@H]1CCCN(CC2CC2)C1 (stereo in doubt) [Example 117b, (1-(cyclopropylmethyl)piperidin-3-yl)(quinolin-2-yl)methanone] | 6.12 |
| COc1ccc2cc(C(=O)[C@@H]3CN(C4CCC4)CC[C@@H]3CC(C)C)ccc2c1CC#N (stereo in doubt) [Example 185a, 2-(6-(1-cyclobutyl-4-isobutylpiperidine-3-carbonyl)-2-methoxynaphthalen-1-yl)acetonitrile] | 7.27 |
| COc1cc2ccc(C(=O)C3CCCN(CC4CC4)C3)cc2cn1 (stereo not shown) [Example 121, (1-(cyclopropylmethyl)piperidin-3-yl)(3-methoxyisoquinolin-7-yl)methanone] | 6.42 |
| CCCN1CCCC(C(=O)c2ccc(Cl)cc2)C1 (stereo not shown) [Example 91, (4-chlorophenyl)-(1-propyl-3-piperidyl)methanone] | 5.80 |
| COc1ccc2cc(C(=O)C3CN(CC4CC4)CCC3C(F)(F)F)ccc2c1 (single isomer, unassigned) [Example 138a, (1-(cyclopropylmethyl)-4-(trifluoromethyl)piperidin-3-yl)(6-methoxynaphthalen-2-yl)methanone] | 6.86 |
| COc1ccc(C(=O)C2CCCN(CC3CC3)C2)cc1 (single isomer, unassigned) [Example 110a, (1-(cyclopropylmethyl)piperidin-3-yl)(4-methoxyphenyl)methanone] | 5.70 |
| C[C@H]1CCN(C2CCC2)C[C@@H]1C(=O)c1ccc2cc(C#N)ccc2c1 (stereo in doubt) [Example 161a, 6-(1-cyclobutyl-4-methylpiperidine-3-carbonyl)-2-naphthonitrile] | 5.52 |
| CCCN1CCCC(C(=O)c2ccc(C(F)(F)F)cc2)C1 (stereo not shown) [Example 100, (1-propyl-3-piperidyl)-[4-(trifluoromethyl)phenyl]methanone] | 5.92 |
| COc1ccc2cc(C(=O)[C@@]3(F)CCCN(CC4CC4)C3)ccc2c1 (stereo in doubt) [Example 157] | 5.21 |
| COc1ccc2cc(C(=O)C3CCCN(C4CCOC4)C3)ccc2c1 (stereo not shown) [Example 15, (6-methoxy-2-naphthyl)-(1-tetrahydrofuran-3-yl-3-piperidyl)methanone] | 6.37 |
| O=C(c1ccccc1Cl)C1CCCN(CC2CC2)C1 (stereo not shown) [Example 113, (2-chlorophenyl)(1-(cyclopropylmethyl)piperidin-3-yl)methanone] | 5.27 |
